Measured values taken from patent US20260357349A1, “METHODS OF IDENTIFYING AND TREATING CANCER” (Agency for Science, Technology and Research, priority 2022, published 2026).

System: NF-κB pathway (786-O cells)
Experiment: RNA-seq after bortezomib, 786-O
Type: cell-based, human
Description: Colony formation of parental (WT) or PBRM1 knockout (KO) 786-O cells expressing shRNA against non-targeting control (NC), RELA, or NFKB1 cultured with a) 10% or b) 2% serum. c) Gene expression changes of NF-κB target genes in 786-O cells treated with 0.006 μM bortezomib (BTZ) or 0.6 µM Bay 11-7085 for 24 hours (n=3 technical replicates). * p-value<0.05 (two-sided t-test). […] A positive log fold change refers to gain in bortezomib treatment over DMSO. g) Colony formation of 786-O isogenic cells and h) NCC432 isogenic cells treated with bortezomib for a week. Tumor formation of isogenic 786-O cells (i) and NCC432 cells (j) treated with PBS control or 0.5 mg/kg bortezomib (BTZ) in NSG mice. (n=10 tumors per group for 786-O, and n=16 tumors for NCC432 PBS EV group and 12 tumors for NCC432 PBS PBRM1 group and 14 tumors for both NCC432 EV and PBRM1 BTZ groups). Data are presented as mean values+/−SEM. k) Model for the study.
In 6 wells, 1,000 786-O cells or 2,500 NCC432 cells were seeded and treated with DMSO control or increasing concentration of drugs for 7 days and stained with crystal violet. For drug screening, we used SGC epigenetic probe collection. For RNA-seq with bortezomib treatment, 2×10^5 786-O cells were treated with DMSO or 0.005 μM bortezomib and harvested 9 hours after treatment for RNA extraction. For RT-qPCR with SMARCA2/4 ATPase inhibitor treatment, 1×10^5 786-O cells were treated with DMSO or 0.01 μM SMARCA2/4 ATPase inhibitor (Targetmol, T10616, CAS: 2270879-17-7) for 3 days before RNA extraction.
Total RNA was extracted using the Qiagen RNeasy Mini kit. RNA-seq libraries were prepared using Illumina Tru-Seq Stranded Total RNA kit protocol, according to the manufacturer's instructions (Illumina, San Diego, California, USA). […] Sequencing was performed on an Illumina HiSeq4000 sequencer with the paired-end 150 bp read option.
RNA-Seq Pathway Analysis RNA-seq data were mapped to hg19 (h117d5) using STAR, with GENCODE annotation (gencode.v19.annotation.gtf) and recommended settings from STAR manual. Gene expression levels were quantified with STAR. […]

CC(C)C[C@H](NC(=O)[C@H](Cc1ccccc1)NC(=O)c1cnccn1)B(O)O [bortezomib]
effect on NF-κB pathway by global transcriptomics (0.005 μM bortezomib, 9 hours, RNA-seq): downregulation of the NF-κB pathway | effect on NF-κB activation (summary) (Example 2 summary): reverses NF-κB activation | additional targets upregulated by PB1 loss that were suppressed (in addition to RELA targets, 786-O): 127 targets
